Assay results published in patent US7951829B2, “Benzimidazole modulators of VR1” (Janssen Pharmaceutica NV, priority 2006, dated 2011).

What was measured:
hVR1 [1] = biological target: T1, hVR1 (Homo sapiens, UniProt Q8NER1); assay: Human VR1 (hVR1) Functional Assay (FLIPR intracellular calcium, capsaicin challenge); type: cell-based; conditions: capsaicin 0.030 μM, HEK293 cells expressing hVR1; for inhibition at 1 µM: test concentration 1 μM
T1 construct: expressed in transfected cells; host or cells: HEK293

hVR1 [2] = biological target: T1, hVR1; assay: Human VR1 (hVR1) Binding Assay ([3H] RTX binding); conditions: inhibition of [3H] RTX binding, membranes of HEK293 cells transfected with hVR1

T1 sequence (Q8NER1 whole entry): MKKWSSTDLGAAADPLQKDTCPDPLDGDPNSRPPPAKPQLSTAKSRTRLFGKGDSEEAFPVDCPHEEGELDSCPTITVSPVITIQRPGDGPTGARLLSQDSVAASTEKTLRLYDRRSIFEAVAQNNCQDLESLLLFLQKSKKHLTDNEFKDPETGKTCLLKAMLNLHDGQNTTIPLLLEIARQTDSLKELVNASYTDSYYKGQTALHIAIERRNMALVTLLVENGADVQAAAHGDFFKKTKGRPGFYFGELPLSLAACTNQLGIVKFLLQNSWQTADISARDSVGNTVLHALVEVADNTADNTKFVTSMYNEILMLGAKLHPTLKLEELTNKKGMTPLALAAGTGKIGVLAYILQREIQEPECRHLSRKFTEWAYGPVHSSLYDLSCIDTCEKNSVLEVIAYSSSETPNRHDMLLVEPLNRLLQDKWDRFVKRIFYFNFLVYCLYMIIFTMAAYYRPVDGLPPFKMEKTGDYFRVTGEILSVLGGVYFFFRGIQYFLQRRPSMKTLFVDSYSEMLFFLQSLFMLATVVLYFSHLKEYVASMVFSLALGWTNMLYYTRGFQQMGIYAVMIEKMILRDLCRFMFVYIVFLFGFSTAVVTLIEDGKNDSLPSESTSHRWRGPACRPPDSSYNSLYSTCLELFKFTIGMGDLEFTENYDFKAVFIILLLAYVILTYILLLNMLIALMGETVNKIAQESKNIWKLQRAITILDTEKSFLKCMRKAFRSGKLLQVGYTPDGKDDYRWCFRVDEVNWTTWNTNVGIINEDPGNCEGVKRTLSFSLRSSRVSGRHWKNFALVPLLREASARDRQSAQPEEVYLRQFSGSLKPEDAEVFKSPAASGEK

Row | Structure (SMILES) | IC50 (hVR1 [1]) [nM] | inhibition at 1 µM (hVR1 [1]) [%] | Ki (hVR1 [2]) [nM]
1 | Oc1ccccc1-c1ccc2[nH]c(/C=C/c3ccc(C(F)(F)F)cc3)nc2c1 [Cpd 14, (E)-2-{2-[2-(4-trifluoromethyl-phenyl)-vinyl]-1H-benzimidazol-5-yl}-phenol] | 1000 | 49 | 380
2 | CC(=O)Nc1ccccc1-c1ccc2[nH]c(/C=C/c3ccc(C(C)(C)C)cc3)nc2c1 [Cpd 4, (E)-N-(2-{2-[2-(4-tert-butyl-phenyl)-vinyl]-1H-benzimidazol-5-yl}-phenyl)-acetamide] | 400 | 78 | 31
3 | CC(=O)Nc1ccccc1-c1cc2nc(/C=C/c3ccc(C(C)(C)C)cc3)[nH]c2cc1C(F)(F)F [Cpd 50, (E)-N-(2-{2-[2-(4-tert-butyl-phenyl)-vinyl]-6-trifluoromethyl-1H-benzimidazol-5-yl}-phenyl)-acetamide] | 100 | 100 | 16
4 | CC(C)(C)c1ccc(/C=C/c2nc3cc(-c4ccccc4O)ccc3[nH]2)cc1 [Cpd 3, (E)-2-{2-[2-(4-tert-butyl-phenyl)-vinyl]-1H-benzimidazol-5-yl}-phenol] | 140 | – | 20
5 | CC(=O)Nc1ccccc1-c1cc2nc(/C=C/c3ccc(C(F)(F)F)cc3)[nH]c2cc1C(F)(F)F [Cpd 56, (E)-N-(2-{6-trifluoromethyl-2-[2-(4-trifluoromethyl-phenyl)-vinyl]-1H-benzimidazol-5-yl}-phenyl)-acetamide] | 110 | 100 | 120
6 | Oc1ccccc1-c1ccc2[nH]c(/C=C/c3ccc(SC(F)(F)F)cc3)nc2c1 [Cpd 36, (E)-2-{2-[2-(4-trifluoromethylsulfanyl-phenyl)-vinyl]-1H-benzimidazol-5-yl}-phenol] | – | 44 | 820
7 | CS(=O)(=O)Nc1ccccc1-c1ccc2[nH]c(/C=C/c3ccc(OC(F)F)cc3)nc2c1 [Cpd 410, (E)-N-(2-{2-[2-(4-difluoromethoxy-phenyl)-vinyl]-1H-benzimidazol-5-yl}-phenyl)-methanesulfonamide] | 156 | 91 | –
8 | CC(C)(C)OC(=O)Nc1ccccc1-c1cc2nc(/C=C/c3ccc(C(C)(C)C)cc3)[nH]c2cc1C(F)(F)F [Cpd 54, (E)-(2-{2-[2-(4-tert-butyl-phenyl)-vinyl]-6-trifluoromethyl-1H-benzimidazol-5-yl}-phenyl)-carbamic acid tert-butyl ester] | – | 20 | –
9 | NS(=O)(=O)c1ccccc1-c1ccc2[nH]c(/C=C/c3cccc(Cl)c3F)nc2c1 [Cpd 431, (E)-2-{2-[2-(3-chloro-2-fluoro-phenyl)-vinyl]-1H-benzimidazol-5-yl}-benzenesulfonamide] | 35 | 97 | –
10 | O=C(CO)c1ccccc1-c1ccc2[nH]c(/C=C/c3ccc(C(F)(F)F)cc3)nc2c1 [Cpd 311, (E)-2-hydroxy-1-(2-{2-[2-(4-trifluoromethyl-phenyl)-vinyl]-1H-benzimidazol-5-yl}-phenyl)-ethanone] | 54 | 99 | –
11 | Oc1ccccc1-c1cc2nc(/C=C/c3ccc(C(F)(F)F)cc3)[nH]c2cc1Cl [Cpd 68, (E)-2-{6-chloro-2-[2-(4-trifluoromethyl-phenyl)-vinyl]-1H-benzimidazol-5-yl}-phenol] | 329 | – | –
12 | OCc1ccccc1-c1cc2nc(/C=C/c3ccc(C(F)(F)F)cc3)[nH]c2cc1Cl [Cpd 66, (E)-(2-{6-chloro-2-[2-(4-trifluoromethyl-phenyl)-vinyl]-1H-benzimidazol-5-yl}-phenyl)-methanol] | 48 | 98 | –
13 | NC(=O)c1ccccc1-c1ccc2[nH]c(/C=C/c3ccc(SC(F)(F)F)cc3)nc2c1 [Cpd 38, (E)-2-{2-[2-(4-trifluoromethylsulfanyl-phenyl)-vinyl]-1H-benzimidazol-5-yl}-benzamide] | 270 | 89 | –
14 | CC(C)(C)c1ccc(CCCc2nc3cc(-c4ccccc4O)ccc3[nH]2)cc1 [Cpd 29, 2-{2-[3-(4-tert-butyl-phenyl)-propyl]-1H-benzimidazol-5-yl}-phenol] | – | 6 | –
15 | CNS(=O)(=O)c1ccccc1-c1ccc2[nH]c(/C=C/c3ccc(F)c(F)c3F)nc2c1 [Cpd 323, (E)-N-methyl-2-{2-[2-(2,3,4-trifluoro-phenyl)-vinyl]-1H-benzimidazol-5-yl}-benzenesulfonamide] | 40 | 97 | –
16 | NS(=O)(=O)c1ccccc1-c1ccc2[nH]c(/C=C/c3cc(Br)ccc3F)nc2c1 [Cpd 379, (E)-2-{2-[2-(5-bromo-2-fluoro-phenyl)-vinyl]-1H-benzimidazol-5-yl}-benzenesulfonamide] | 40 | 99 | –
17 | CNS(=O)(=O)c1ccccc1-c1ccc2[nH]c(/C=C/c3ccc(C(C)=O)cc3)nc2c1 [Cpd 456, (E)-2-{2-[2-(4-acetyl-phenyl)-vinyl]-1H-benzimidazol-5-yl}-N-methyl-benzenesulfonamide] | 45 | 100 | –
18 | CS(=O)(=O)c1ccc(CCc2nc3cc(-c4ccccc4S(N)(=O)=O)ccc3[nH]2)cc1 [Cpd 145, 2-{2-[2-(4-methanesulfonyl-phenyl)-ethyl]-1H-benzimidazol-5-yl}-benzenesulfonamide] | – | 19 | –
19 | CC(=O)Nc1cccc(-c2ccc3[nH]c(/C=C/c4ccc(F)c(F)c4)nc3c2)c1 [Cpd 25, (E)-N-(3-{2-[2-(3,4-difluoro-phenyl)-vinyl]-1H-benzimidazol-5-yl}-phenyl)-acetamide] | – | 4 | –

Other lines, results leading:

Row | IC50 (hVR1 [1]) [nM] | inhibition at 1 µM (hVR1 [1]) [%] | Ki (hVR1 [2]) [nM] | Structure (SMILES)
20 | 22 | 99 | 22 | NS(=O)(=O)c1ccccc1-c1ccc2[nH]c(/C=C/c3ccc(S(=O)(=O)C(F)(F)F)cc3)nc2c1 [Cpd 71, (E)-2-{2-[2-(4-trifluoromethanesulfonyl-phenyl)-vinyl]-1H-benzimidazol-5-yl}-benzenesulfonamide]
21 | 6 | 98 | 6 | NS(=O)(=O)c1ccccc1-c1ccc2[nH]c(/C=C/c3ccc(OC(F)(F)F)cc3)nc2c1 [Cpd 69, (E)-2-{2-[2-(4-trifluoromethoxy-phenyl)-vinyl]-1H-benzimidazol-5-yl}-benzenesulfonamide]
22 | 6 | 100 | 19 | CNS(=O)(=O)c1ccccc1-c1ccc2[nH]c(/C=C/c3ccc(Br)cc3)nc2c1 [Cpd 312, (E)-2-{2-[2-(4-bromo-phenyl)-vinyl]-1H-benzimidazol-5-yl}-N-methyl-benzenesulfonamide]
23 | 7 | 98 | 39 | NS(=O)(=O)c1ccccc1-c1ccc2[nH]c(/C=C/c3ccc(F)cc3)nc2c1 [Cpd 434, (E)-2-{2-[2-(4-fluoro-phenyl)-vinyl]-1H-benzimidazol-5-yl}-benzenesulfonamide]
24 | 10 | 100 | 6 | CNS(=O)(=O)c1ccccc1-c1ccc2[nH]c(/C=C/c3ccc(C(F)(F)F)c(F)c3)nc2c1 [Cpd 319, (E)-2-{2-[2-(3-fluoro-4-trifluoromethyl-phenyl)-vinyl]-1H-benzimidazol-5-yl}-N-methyl-benzenesulfonamide]
25 | 35 | 99 | – | NS(=O)(=O)c1ccccc1-c1ccc2[nH]c(/C=C/c3ccccc3Br)nc2c1 [Cpd 366, (E)-2-{2-[2-(2-bromo-phenyl)-vinyl]-1H-benzimidazol-5-yl}-benzenesulfonamide]
26 | 33 | 98 | – | CNS(=O)(=O)c1ccccc1-c1ccc2[nH]c(/C=C/c3cc(F)c(F)cc3F)nc2c1 [Cpd 324, (E)-N-methyl-2-{2-[2-(2,4,5-trifluoro-phenyl)-vinyl]-1H-benzimidazol-5-yl}-benzenesulfonamide]
27 | 33 | 100 | – | CNS(=O)(=O)c1ccccc1-c1ccc2[nH]c(CCc3cccc(C(F)(F)F)c3)nc2c1 [Cpd 350, N-methyl-2-{2-[2-(3-trifluoromethyl-phenyl)-ethyl]-1H-benzimidazol-5-yl}-benzenesulfonamide]
28 | 10 | 95 | – | NS(=O)(=O)c1ccccc1-c1ccc2[nH]c(CCc3cc(F)cc(C(F)(F)F)c3)nc2c1 [Cpd 421, 2-{2-[2-(3-fluoro-5-trifluoromethyl-phenyl)-ethyl]-1H-benzimidazol-5-yl}-benzenesulfonamide]
29 | 18 | 100 | – | CS(=O)(=O)Nc1ccccc1-c1ccc2[nH]c(/C=C/c3ccc(C(F)(F)F)cc3F)nc2c1 [Cpd 418, (E)-N-(2-{2-[2-(2-fluoro-4-trifluoromethyl-phenyl)-vinyl]-1H-benzimidazol-5-yl}-phenyl)-methanesulfonamide]
30 | 19 | 100 | – | NC(=O)c1ccccc1-c1ccc2[nH]c(C3CC3c3ccc(C(F)(F)F)cc3)nc2c1 (stereo not shown) [Cpd 498, 2-{2-[2-(4-trifluoromethyl-phenyl)-cyclopropyl]-1H-benzimidazol-5-yl}-benzamide]
31 | 28 | 101 | – | CNS(=O)(=O)c1ccccc1-c1ccc2[nH]c(/C=C/c3ccc(C#N)cc3)nc2c1 [Cpd 451, (E)-2-{2-[2-(4-cyano-phenyl)-vinyl]-1H-benzimidazol-5-yl}-N-methyl-benzenesulfonamide]
32 | 20 | 95 | – | NS(=O)(=O)c1ccccc1-c1ccc2[nH]c(CCc3cccc(C(F)(F)F)c3F)nc2c1 [Cpd 405, 2-{2-[2-(2-fluoro-3-trifluoromethyl-phenyl)-ethyl]-1H-benzimidazol-5-yl}-benzenesulfonamide]
33 | 11 | 96 | – | NS(=O)(=O)c1ccccc1-c1ccc2[nH]c(CCc3ccc(F)c(C(F)(F)F)c3)nc2c1 [Cpd 383, 2-{2-[2-(4-fluoro-3-trifluoromethyl-phenyl)-ethyl]-1H-benzimidazol-5-yl}-benzenesulfonamide]
